Target: T1, recombinant GisA, SAUSA300_0200 (Staphylococcus aureus, UniProt A0A0H2XI71)
T1 construct: His-tagged, pET28b, purified from E. coli slyD mutant by Ni-NTA; ATPase subunit alone
T1 sequence (A0A0H2XI71 1-530): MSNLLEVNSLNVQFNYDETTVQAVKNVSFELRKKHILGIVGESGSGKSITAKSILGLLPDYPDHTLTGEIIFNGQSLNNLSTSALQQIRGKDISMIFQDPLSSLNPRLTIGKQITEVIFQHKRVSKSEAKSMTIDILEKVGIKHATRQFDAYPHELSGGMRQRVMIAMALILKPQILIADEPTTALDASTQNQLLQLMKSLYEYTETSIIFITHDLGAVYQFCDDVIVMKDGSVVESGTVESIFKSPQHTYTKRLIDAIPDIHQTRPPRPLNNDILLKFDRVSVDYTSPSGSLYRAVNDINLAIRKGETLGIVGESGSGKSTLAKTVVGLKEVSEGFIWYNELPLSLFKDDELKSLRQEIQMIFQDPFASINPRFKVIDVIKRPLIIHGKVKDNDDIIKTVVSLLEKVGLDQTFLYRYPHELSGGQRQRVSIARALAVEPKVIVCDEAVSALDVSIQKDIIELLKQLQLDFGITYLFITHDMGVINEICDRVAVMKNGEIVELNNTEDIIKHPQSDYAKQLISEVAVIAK
Assay: ATP hydrolysis assay
Format: biochemical
Details: GisA alone; details only in supplement

Nc1ncnc2c1ncn2[C@@H]1O[C@H](COP(=O)(O)OP(=O)(O)OP(=O)(O)O)[C@@H](O)[C@H]1O [ATP]
ATP hydrolysis assay: recombinant GisA purified from Escherichia coli exhibits ATP hydrolysis activity

Source: PMC10355420, “The glutathione import system satisfies the Staphylococcus aureus nutrient sulfur requirement and promotes interspecies competition” (PLOS Genetics, 2023)
